Assay results published in patent publication US7763615B2, “Ecteinascidin analogs for use as antitumour agents” (priority 2001, dated 2010).

Experiments:
Assay in all cases: cells
Type in all cases: cell-based
SK-BR3 = details: Homo sapiens, SK-BR3, 48 hours exposure, SRB
Method in brief: (§1)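 Continuous 48 h drug exposure of attached human cancer cells (5×10^3/well, RPMI 1640, 10% FBS), doses 10 to 10^−8 μg/ml. Endpoint is SRB staining after TCA fixation, read at 490 nm. GI, TGI and LC calculated from triplicate means.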

LOVO-DOX = details: Homo sapiens, LOVO-DOX, 48 hours exposure, SRB
Method in brief: as §1

DU145 = details: Homo sapiens, DU145, 48 hours exposure, SRB
Method in brief: as §1

PANC-1 = details: Homo sapiens, PANC-1, 48 hours exposure, SRB
Method in brief: as §1

HT29 = details: HT29, 48 hours exposure, SRB
Method in brief: as §1

IGROV = details: Homo sapiens, 48 hours exposure, SRB
Method in brief: as §1

HELA = details: HELA, 48 hours exposure, SRB
Method in brief: as §1

LNCAP = details: Homo sapiens, 48 hours exposure, SRB
Method in brief: as §1

A549 = details: A549, 48 hours exposure, SRB
Method in brief: as §1

HELA-APL = tested on: HELA-APL
Method in brief: as §1

LOVO = details: Homo sapiens, 48 hours exposure, SRB
Method in brief: as §1

IGROV-ET = details: Homo sapiens, IGROV-ET, 48 hours exposure, SRB
Method in brief: as §1

K562 = details: Homo sapiens, K562, 48 hours exposure, SRB
Method in brief: as §1

MEL-28 = details: Homo sapiens, MEL-28, 48 hours exposure, SRB
Method in brief: as §1

[1] = read-out: LC50 (the source's name)

COc1c(C)cc2c(c1O)[C@@H]1C3[C@@H]4SC[C@]5(C(=O)COC[C@@H](c6c7c(c(C)c(OC(C)=O)c64)OCO7)N3[C@@H](C#N)[C@H](C2)N1C)c1[nH]c2ccccc2c1CCN5C (stereo partly drawn) [Compound 14]
GI50 (SK-BR3; SK-BR-3, 48 h): 0.217 µM | IC (TGI) (SK-BR3; SK-BR-3, 48 h): 0.537 µM | CC50 (SK-BR3; SK-BR-3, read-out: LC50 (the source's name)): 1.62 µM | GI50 (LOVO-DOX; 48 h): 0.584 µM | IC (TGI) (LOVO-DOX; 48 h): 3.84 µM | CC50 (LOVO-DOX; [1]): 12.9 µM | GI50 (DU145; DU-145, 48 h): 0.0946 µM | IC (TGI) (DU145; DU-145, 48 h): 1.39 µM | CC50 (DU145; DU-145, read-out: LC50 (the source's name)): 12.9 µM | GI50 (PANC-1; PANC-1, 48 h): 0.276 µM | IC (TGI) (PANC-1; PANC-1, 48 h): 0.825 µM | CC50 (PANC-1; [1]): 12.9 µM | GI50 (HT29): 0.418 µM | TGI (HT29): 1.59E−06 Molar | CC50 (HT29; [1]): 12.9 µM | GI50 (IGROV; 48 h): 0.226 µM | IC (TGI) (IGROV; 48 h): 0.744 µM | CC50 (IGROV; [1]): 5.14 µM | TGI (HELA): 3.10E−07 Molar | GI50 (HELA; Homo sapiens): 0.114 µM | CC50 (HELA; Homo sapiens, read-out: LC50 (the source's name)): 0.81 µM | GI50 (LNCAP; LNCaP, 48 h): 0.0612 µM | IC (TGI) (LNCAP; LNCaP, 48 h): 0.177 µM | CC50 (LNCAP; LNCAP, read-out: LC50 (the source's name)): 0.535 µM | TGI (A549): 8.25E−07 Molar | GI50 (A549; read-out: GI50): 0.264 µM | CC50 (A549; [1]): 6.86 µM | TGI (HELA-APL; HELA-APL, 48 hours exposure, SRB): 4.88E−07 Molar | GI50 (HELA-APL; Homo sapiens, 48 h): 0.243 µM | CC50 (HELA-APL; Homo sapiens, HELA-APL, 48 hours exposure, SRB, read-out: LC50 (the source's name)): 0.98 µM | GI50 (LOVO; LoVo, 48 h): 0.141 µM | IC (TGI) (LOVO; LoVo, 48 h): 0.393 µM | CC50 (LOVO; LOVO, read-out: LC50 (the source's name)): 1.1 µM | GI50 (IGROV-ET; 48 h): 0.569 µM | IC (TGI) (IGROV-ET; 48 h): 1.3 µM | CC50 (IGROV-ET; [1]): 12.9 µM | GI50 (K562; K562, 48 h): 0.0447 µM | IC (TGI) (K562; K562, 48 h): 0.174 µM | CC50 (K562; [1]): 1.29 µM | GI50 (MEL-28; SK-MEL-28, 48 h): 0.198 µM | IC (TGI) (MEL-28; SK-MEL-28, 48 h): 0.519 µM | CC50 (MEL-28; SK-MEL-28, read-out: LC50 (the source's name)): 2.37 µM
